Measurements: patent US8685394B2, “Combination of anti-CTLA4 antibody with diverse therapeutic regimens for the synergistic treatment of proliferative diseases” (Bristol-Myers Squibb Company, priority 2008, dated 2014)
Entries after “also recorded” stand apart in the source; their conditions may differ. Where two headings read alike, the source gives them in different places.

Assays:
SA1N fibrosarcoma [1] = conditions: dasatinib 30 mg/kg daily or 5 days on/2 days off, concurrent CTLA-4 mAb
CT26 colon carcinoma [2] = conditions: dasatinib 30 mg/kg, concurrent CTLA-4 mAb
M109 lung carcinoma [3] = conditions: dasatinib with CTLA-4 mAb
P815 mastocytoma = conditions: SPRYCEL 30 mg/kg P.O., anti-CTLA-4 mAb IP days 10, 14, 18
T-cell function = conditions: in vitro; concentrations of 10-50 nM; inhibition of cytokine secretion and degranulation; Weischel et al., 2008; cited from earlier work
T-cell activation = conditions: Schade et al., 2007; cited from earlier work
STAT3 = conditions: Yu, H. et al., 2007; cited from earlier work
M109 lung carcinoma [4] = assay: M109 lung carcinoma subcutaneous tumor model; assay type: in vivo, murine; conditions: for CR / T-C (1000 mm^3) / PR / % TGI (Average): M109 s.c.; for CR: complete regression = non-palpable tumor for ≧2 assessments; for T-C (1000 mm^3): number of days to reach target tumor size 1000 mm^3, doses and schedules of Table 1; for PR: partial regression = 50% reduction in tumor volume for ≧2 assessments; for % TGI (Average): percent tumor growth inhibition, each treatment at dose (mg/kg) and schedule (study days) of Table 1
Experimental: (§1) All compounds were tested at their optimal dose and schedule. When used in combination, CTLA-4 mAb was initiated one day after the first dose of chemotherapy. Percent tumor growth inhibition and number of days to reach target tumor size were used to evaluate efficacy. Antitumor activity was scored as: complete regression (CR; non-palpable tumor for ≧2 assessments) or partial regression (PR; 50% reduction in tumor volume for ≧2 assessments).

M109 lung metastasis = assay: M109 lung carcinoma model of experimental pulmonary metastasis; assay type: in vivo, murine; conditions: doses and schedules of Table 2, control vehicle 32
SA1N fibrosarcoma [5] = assay: SA1N fibrosarcoma subcutaneous tumor model; assay type: in vivo, murine; conditions: SA1N s.c.; for % TGI (Average D 20-48): average of days 20-48, doses and schedules of Table 3; for CR: mice with complete regression / mice in group; for PR: mice with partial regression / mice in group; for T-C (1000 mm^3): number of days to reach target tumor size 1000 mm^3
Experimental: as §1

CT26 colon carcinoma [6] = assay: CT26 colon carcinoma subcutaneous tumor model; assay type: in vivo, murine; conditions: for % TGI (Average) / CR / PR / T-C (1000 mm^3): CT26 s.c.; for % TGI (Average): doses and schedules of Table 4; for CR: mice with complete regression / mice in group; for PR: mice with partial regression / mice in group; for T-C (1000 mm^3): number of days to reach target tumor size 1000 mm^3
Experimental: as §1

tumor models = assay: Antitumor activity in murine tumor models, model not stated (FIG. 6, 8, 9, 10; summary); assay type: in vivo; conditions: concurrent treatment
[7] = system: immune cells in tumor-draining lymph nodes; assay: Composition of immune cells in tumor-draining lymph nodes (FIG. 13); assay type: in vivo
in vivo cytotoxicity = conditions: FIG. 12
[8] = CT26 colon carcinoma, established tumors

| Compound | CR (M109 lung carcinoma [4]) | T-C (1000 mm^3) (M109 lung carcinoma [4]) | PR (M109 lung carcinoma [4]) | % TGI (Average) (M109 lung carcinoma [4]) [%] | antitumor activity / combination effect, in words (M109 lung carcinoma [4]; M109 subcutaneous tumor model) | Median Survival Time (M109 lung metastasis) [days] | % TGI (Average D 20-48) (SA1N fibrosarcoma [5]) [%] | CR (SA1N fibrosarcoma [5]) | PR (SA1N fibrosarcoma [5]) | T-C (1000 mm^3) (SA1N fibrosarcoma [5]) | antitumor activity / combination effect, in words (CT26 colon carcinoma [6]; [8]) | % TGI (Average) (CT26 colon carcinoma [6]) [%] | CR (CT26 colon carcinoma [6]) | PR (CT26 colon carcinoma [6]) | T-C (1000 mm^3) (CT26 colon carcinoma [6]) | CTLA-4 blockade activity under concurrent chemotherapy (tumor models) | other results |
| --- | --- | --- | --- | --- | --- | --- | --- | --- | --- | --- | --- | --- | --- | --- | --- | --- | --- |
| Cc1nc(Nc2ncc(C(=O)Nc3c(C)cccc3Cl)s2)cc(N2CCN(CCO)CC2)n1 [dasatinib, N-(2-chloro-6-methylphenyl)-2-[[6-[4-(2-hydroxyethyl)-1-piperazinyl]-2-methyl-4-pyrimidinyl]amino]-5-thiazolecarboxamide] | – | – | – | – | – | – | – | – | – | – | – | – | – | – | – | – | antitumor activity / combination effect, in words (SA1N fibrosarcoma [1]): modest antitumor activity; antitumor activity / combination effect, in words (CT26 colon carcinoma [2]): minimal activity; antitumor activity / combination effect, in words (M109 lung carcinoma [3]): minimal activity; antitumor activity / combination effect, in words (P815 mastocytoma): modest antitumor activity; effect on T-cell function (T-cell function): inhibits T-cell function; effect on T-cell activation (T-cell activation): blockade of T-cell activation; inhibition of STAT3 (STAT3): potent inhibition of STAT3 |
| 4′-Demethylepipodophyllotoxin 9-[4,6-O-(R)-ethylidene-β-D-glucopyranoside], 4′-(dihydrogen phosphate) [Etoposide] | 0 | 9 | 0 | 59 | modestly sensitive | 34 | 88 | 0/8 | 1/8 | 14 | effective as single agents | 66 | 1/8 | 0/8 | 11 | not abolished | – |
| CC(=O)O[C@H]1C(=O)[C@@]2(C)[C@H]([C@H](OC(=O)c3ccccc3)[C@]3(O)C[C@H](OC(=O)[C@H](O)[C@@H](NC(=O)c4ccccc4)c4ccccc4)C(C)=C1C3(C)C)[C@]1(OC(C)=O)CO[C@@H]1C[C@@H]2O [Paclitaxel, 5beta,20-Epoxy-1,2alpha,4,7beta,10beta,13alpha-hexahydroxytax-11-en-9-one 4,10-diacetate 2-benzoate 13-ester with (2R,3S)-N-benzoyl-3-phenylisoserine] | 0 | 5 | 0 | 45 | – | 38 | 65 | 0/8 | 0/8 | 13 | – | 0 | 0/8 | 0/8 | 0 | not abolished | antitumor activity / combination effect, in words (M109 lung carcinoma [4]; mouse, in vivo, sc): modestly sensitive; antitumor activity / combination effect, in words (CT26 colon carcinoma [6]; mouse, in vivo): ineffective |
| Cl.Nc1ccn([C@@H]2O[C@H](CO)[C@@H](O)C2(F)F)c(=O)n1 (single isomer, unassigned) [Gemcitabine, 2′-deoxy-2′,2′-difluorocytidine monohydrochloride (β-isomer)] | 0 | 2.2 | 0 | 32 | modestly sensitive; also recorded: did not produce significant antitumor activity | 42 | 68 | 0/8 | 0/8 | 11 | effective as single agents | 102 | 2/8 | 0/8 | 12 | not abolished | antitumor activity / combination effect, in words (M109 lung carcinoma [4]; M109 subcutaneous tumor model, listed as Gem): modestly sensitive; also recorded: did not produce significant M109 antitumor activity; composition of immune cells in tumor-draining lymph nodes [7]: modulates the composition of immune cells; in vivo cytotoxicity (in vivo cytotoxicity): promote in vivo cytotoxicity |
